Like-named read-outs stand apart in the source and are kept apart here.
What was measured:
[1] = test system: CAKI-1 human renal tumor xenograft; assay: Aplidine with temsirolimus, CAKI-1 xenograft in athymic nude mice (Example 4); format: in vivo; conditions: for % Inhibition G4: temsirolimus 10 mg/kg/day; for % Inhibition G3: temsirolimus 20 mg/kg/day
Description: Female athymic nude mice (Harlan Sprague Dawley, Madison, Wis.) were utilized for all experiments. Mice were implanted with a cell suspension when mice were 6-8 weeks of age. Animals were housed in ventilated rack caging with food and water ad libitum. The mice were acclimated for at least 5 days prior to tumor implantation. […] The tumor model used in this study was CAKI-1, which was implanted in the animals as disclosed in Example 2.
Tumor measurements were determined as disclosed in Example 1. When tumor growth was within an average size range of 140±34 mg (mean±SD), mice were randomized into the treatment and control groups based on tumor weight by using LabCat® In Life module V 8.0 SP1 tumor tracking and measurement software.
(§1) The treatment of CAKI-1-tumor-bearing mice was initiated on DPI (Day Post Implantation) 21. Body weights were recorded on treatment days and when tumor sizes were measured. In those days wherein the two drugs were administered the same day, the combination therapy groups were treated by co-administering the two drugs at the same time, with no attempt to sequence the treatments.
(§2) Aplidine was provided in the form of vials of lyophilized aplidine powder which was reconstituted in Cremophor EL/ethanol/water (CEW) 15/15/70 to a concentration of 0.5 mg/ml. The aplidine solution in CEW was diluted in 0.9% Saline to the dosing formulation concentrations, being the final proportion of CEW of 0.18/0.18/0.84.
(§3) Temsirolimus was provided in the form of vials containing a non-aqueous, ethanolic, sterile solution of temsirolimus, 25 mg/ml. […] Then, the solution was further diluted in 0.9% Saline to the dosing formulation concentrations.
(§4) Tumor size measurements were recorded twice weekly from the treatment initiation until the termination of the study. Tumor growth inhibition was assessed comparing the mean tumor weight between the two agents in combination (aplidine and temsirolimus) against temsirolimus mean tumor weight at the different concentrations assayed.
(§5) Mean, standard deviation and standard error of the mean were determined for tumor volume for all animal groups at all assessments. Student's t test was performed on tumor volumes at each measurement day, including at the end of the study, to determine whether there were any statistically significant differences between combination treatment groups and single monotherapy treatment groups.
The definition and criteria for the evaluation of potentiation and the degree of additivity for the combination therapy were the same as those disclosed in Example 1.

[2] = test system: NCI-H-460 human NSCLC xenograft; assay: Aplidine with temsirolimus, NCI-H-460 xenograft in athymic nude mice (Example 5); format: in vivo; conditions: for % Inhibition G4: temsirolimus 10 mg/kg/day; for % Inhibition G3: temsirolimus 20 mg/kg/day
Description: Female athymic nude mice (Harlan Sprague Dawley, Madison, Wis.) were utilized for all experiments. Mice were implanted with a cell suspension when mice were 6-8 weeks of age. Animals were housed in ventilated rack caging with food and water ad libitum. The mice were acclimated for at least 5 days prior to tumor implantation.
The tumor model used in this study was NCI-H-460, which is a human NSCLC cell line obtained from the ATCC (Manassas, Va.). NCI-H-460 cells were grown in RPMI-1640 medium, 10% FBS, 10 mM Hepes, 1 mM sodium pyruvate, 4.5 g/l glucose, 1.5 g/l sodium bicarbonate and 2 mM L-glutamine. Cells from in vitro passage 11 were implanted SC into study mice: 5×10^6 cells/mouse in 0.2 ml 50% Matrigel/50% medium without antibiotics or serum, using a 23 G needle and 1 cc syringe.
Tumor measurements were determined as disclosed in Example 1. When tumor growth was within an average size range of 110±25 mg (mean±SD), mice were randomized into the treatment and control groups based on tumor weight by using LabCat® In Life module V 8.0 SP1 tumor tracking and measurement software.
as §1, with “NCI-H-460-tumor-bearing” for “CAKI-1-tumor-bearing”, “7.” for “21.”
as §2, §3, §4, §5
The definition and criteria for the evaluation of potentiation and the degree of additivity for the combination therapy were the same as those disclose in Example 1.

[3] = G3: temsirolimus 20 mg/kg/day IP
[4] = G4: temsirolimus 10 mg/kg/day IP
[5] = temsirolimus 10 and 20 mg/kg/day

SMILES: CO[C@H]1C[C@@H]2CC[C@@H](C)[C@@](O)(O2)C(=O)C(=O)N2CCCC[C@H]2C(=O)O[C@H]([C@H](C)C[C@@H]2CC[C@@H](OC(=O)C(C)(CO)CO)[C@H](OC)C2)CC(=O)[C@H](C)/C=C(\C)[C@@H](O)[C@@H](OC)C(=O)[C@H](C)C[C@H](C)/C=C/C=C/C=C/1C [temsirolimus]
- % T/C on day 21 [1, 3]: 98.3%
- % T/C on day 24 [1, 3]: 76.7%
- % T/C on day 27 [1, 3]: 75.3%
- % T/C on day 30 [1, 3]: 47.0%
- % T/C on day 34 [1, 3]: 42.2%
- % T/C on day 38 [1, 3]: 48.0%
- % T/C on day 42 [1, 3]: 51.9%
- % T/C on day 45 [1, 3]: 58.9%
- % T/C on day 48 [1, 3]: 63.6%
- % T/C on day 56 [1, 3]: 75.3%
- % T/C on day 58 [1, 3]: 78.8%
- % T/C on day 21 [1, 4]: 95.7%
- % T/C on day 24 [1, 4]: 69.9%
- % T/C on day 27 [1, 4]: 81.3%
- % T/C on day 30 [1, 4]: 53.2%
- % T/C on day 34 [1, 4]: 50.4%
- % T/C on day 38 [1, 4]: 51.1%
- % T/C on day 42 [1, 4]: 60.3%
- % T/C on day 45 [1, 4]: 66.7%
- % T/C on day 48 [1, 4]: 66.2%
- % T/C on day 56 [1, 4]: 73.4%
- % T/C on day 58 [1, 4]: 76.5%
- % Inhibition G4 ([1]; day 21): 4.3%
- % Inhibition G4 ([1]; day 24): 30.1%
- % Inhibition G4 ([1]; day 27): 18.7%
- % Inhibition G4 ([1]; day 30): 46.8%
- % Inhibition G4 ([1]; day 34): 49.6%
- % Inhibition G4 ([1]; day 38): 48.9%
- % Inhibition G4 ([1]; day 42): 39.7%
- % Inhibition G4 ([1]; day 45): 33.3%
- % Inhibition G4 ([1]; day 48): 33.8%
- % Inhibition G4 ([1]; day 56): 26.6%
- % Inhibition G4 ([1]; day 58): 23.5%
- % Inhibition G3 ([1]; day 21): 1.7%
- % Inhibition G3 ([1]; day 24): 23.3%
- % Inhibition G3 ([1]; day 27): 24.7%
- % Inhibition G3 ([1]; day 30): 53.0%
- % Inhibition G3 ([1]; day 34): 57.8%
- % Inhibition G3 ([1]; day 38): 52.0%
- % Inhibition G3 ([1]; day 42): 48.1%
- % Inhibition G3 ([1]; day 45): 41.1%
- % Inhibition G3 ([1]; day 48): 36.4%
- % Inhibition G3 ([1]; day 56): 24.7%
- % Inhibition G3 ([1]; day 58): 21.2%
- antitumor activity as single agent (monotherapy) [1, 5]: did not meet the NCI criteria for activity
- % T/C on day 7 [2, 3]: 98.2%
- % T/C on day 10 [2, 3]: 41.2%
- % T/C on day 13 [2, 3]: 30.5%
- % T/C on day 16 [2, 3]: 30.9%
- % T/C on day 20 [2, 3]: 26.3%
- % T/C on day 23 [2, 3]: 27.4%
- % T/C on day 27 [2, 3]: 35.6%
- % T/C on day 29 [2, 3]: 48.2%
- % T/C on day 31 [2, 3]: 56.8%
- % T/C on day 7 [2, 4]: 102.1%
- % T/C on day 10 [2, 4]: 49.9%
- % T/C on day 13 [2, 4]: 37.1%
- % T/C on day 16 [2, 4]: 34.1%
- % T/C on day 20 [2, 4]: 30.9%
- % T/C on day 23 [2, 4]: 31.4%
- % T/C on day 27 [2, 4]: 42.6%
- % T/C on day 29 [2, 4]: 57.8%
- % T/C on day 31 [2, 4]: 60.3%
- % Inhibition G4 ([2]; day 7): −2.1%
- % Inhibition G4 ([2]; day 10): 50.1%
- % Inhibition G4 ([2]; day 13): 62.9%
- % Inhibition G4 ([2]; day 16): 65.9%
- % Inhibition G4 ([2]; day 20): 69.1%
- % Inhibition G4 ([2]; day 23): 68.6%
- % Inhibition G4 ([2]; day 27): 57.4%
- % Inhibition G4 ([2]; day 29): 42.2%
- % Inhibition G4 ([2]; day 31): 39.7%
- % Inhibition G3 ([2]; day 7): 1.8%
- % Inhibition G3 ([2]; day 10): 58.8%
- % Inhibition G3 ([2]; day 13): 69.5%
- % Inhibition G3 ([2]; day 16): 69.1%
- % Inhibition G3 ([2]; day 20): 73.7%
- % Inhibition G3 ([2]; day 23): 72.6%
- % Inhibition G3 ([2]; day 27): 64.4%
- % Inhibition G3 ([2]; day 29): 51.8%
- % Inhibition G3 ([2]; day 31): 43.2%
- antitumor activity as single agent (monotherapy) [2, 5]: meeting the NCI criteria for activity
- effect on body weight / toxicity (CAKI-1 study, Example 4 (temsirolimus)): did not cause a significant decline in mean body weight
- effect on body weight / toxicity (NCI-H-460 study, Example 5 (temsirolimus)): did not cause a significant decline in mean body weight
